# Reference: ChEMBL document CHEMBL1255477, “In vitro properties of BAL30072, a novel siderophore sulfactam with activity against multiresistant gram-negative bacilli” (Antimicrob Agents Chemother, 2010)
# pIC50: −log10 of the molar value. Active and inactive are the calls of the source. The calls are words filed in the database; no cut-off is given here.
# Key:
# Escherichia coli [1] = assay: Antimicrobial activity against Escherichia coli Libyien harboring beta-lactamase CMY-2 by broth dilution method; type: functional
# Escherichia coli [2] = assay: Antimicrobial activity against Escherichia coli by broth dilution method; type: functional
# Klebsiella pneumoniae [3] = assay: Antimicrobial activity against Klebsiella pneumoniae CRE harboring beta-lactamase KPC-2 by broth dilution method; type: functional
# [4] = Inhibition of Escherichia coli Penicillin-binding protein 2
# Providencia rettgeri [5] = assay: Antimicrobial activity against Providencia rettgeri J96 harboring beta-lactamase IMP-1 by broth dilution method; type: functional
# Escherichia coli [6] = assay: Antimicrobial activity against Escherichia coli A harboring beta-lactamase CTX-M 15 by broth dilution method; type: functional
# [7] = Inhibition of Escherichia coli Penicillin-binding protein 3
# Klebsiella oxytoca [8] = assay: Antimicrobial activity against Klebsiella oxytoca 1028E harboring beta-lactamase K1 by broth dilution method; type: functional
# Pseudomonas aeruginosa [9] = assay: Antimicrobial activity against Pseudomonas aeruginosa HPA10586 harboring beta-lactamase VIM-1 by broth dilution method; type: functional
# Acinetobacter baumannii [10] = assay: Antimicrobial activity against Acinetobacter baumannii HPA I-16 harboring beta-lactamase OXA-27 by broth dilution method; type: functional
# Acinetobacter baumannii [11] = assay: Antimicrobial activity against Acinetobacter baumannii HPA74510 harboring beta-lactamase IMP-4 by broth dilution method; type: functional
# Serratia marcescens [12] = assay: Antimicrobial activity against Serratia marcescens S6 harboring beta-lactamase SME-1.AmpC by broth dilution method; type: functional
# [13] = Inhibition of Beta-lactamase IMP1
# AmpC = AmpC (Escherichia coli, UniProt Q83TT7); assay: Inhibition of Escherichia coli ATCC 25922 AmpC
# AmpC, sequence (Q83TT7 whole entry): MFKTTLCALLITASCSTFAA
# Pseudomonas aeruginosa [14] = assay: microbe, parasite or virus in culture; settings: 18S/H
# [15] = Inhibition of Escherichia coli Penicillin-binding protein 1A
# Citrobacter freundii = assay: Antimicrobial activity against Citrobacter freundii by broth dilution method; type: functional
# Acinetobacter baumannii [16] = assay: Antimicrobial activity against Acinetobacter baumannii HPA 4737 harboring beta-lactamase OXA-26 by broth dilution method; type: functional
# Acinetobacter baumannii [17] = assay: Antimicrobial activity against Acinetobacter baumannii HPA 327009 harboring beta-lactamase OXA-25 by broth dilution method; type: functional
# Klebsiella pneumoniae [18] = assay: Antimicrobial activity against Klebsiella pneumoniae 1357E harboring beta-lactamase TEM-10 by broth dilution method; type: functional
# Klebsiella pneumoniae [19] = assay: Antimicrobial activity against Klebsiella pneumoniae 26768WU harboring beta-lactamase SHV-5 by broth dilution method; type: functional
# Klebsiella oxytoca [20] = assay: Antimicrobial activity against Klebsiella oxytoca by broth dilution method; type: functional
# Escherichia coli [21] = assay: Antimicrobial activity against Escherichia coli W3110 assessed as appearance of spheroplast at 64 ug/mL after 3 hrs by phase-contrast microscopy; type: functional, organism-based
# Klebsiella pneumoniae [22] = assay: Antimicrobial activity against Klebsiella pneumoniae YC harboring beta-lactamase KPC-2,TEM-1and SHV-2 by broth dilution method; type: functional
# Escherichia coli [23] = assay: Antimicrobial activity against Escherichia coli HB101 harboring beta-lactamase TEM-5 by broth dilution method; type: functional
# Klebsiella aerogenes = assay: Antimicrobial activity against Enterobacter aerogenes by broth dilution method; type: functional
# [24] = Inhibition of beta-lactamase KPC-2
# Escherichia coli [25] = assay: Antimicrobial activity against Escherichia coli nmcA harboring beta-lactamase NMCA by broth dilution method; type: functional
# Escherichia coli [26] = assay: Antimicrobial activity against Escherichia coli CF102 harboring beta-lactamase TEM-3 by broth dilution method; type: functional
# Escherichia coli [27] = assay: Antimicrobial activity against Escherichia coli K802N harboring beta-lactamase TEM-3 by broth dilution method; type: functional
# [28] = Inhibition of Escherichia coli Penicillin-binding protein 1B
# Acinetobacter sp. = assay: Antimicrobial activity against Acinetobacter sp. by broth dilution method; type: functional
# [29] = system: Stenotrophomonas maltophilia; assay: Antimicrobial activity against Stenotrophomonas maltophilia B715 harboring beta-lactamase L1and L2 by broth dilution method; type: functional
# Escherichia coli [30] = assay: Antimicrobial activity against Escherichia coli W3110 assessed as appearance of long filaments at 64 ug/mL after 3 hrs by phase-contrast microscopy; type: functional, organism-based
# Pseudomonas aeruginosa [31] = assay: Antimicrobial activity against mexAB-oprM protein and mexCD-oprJ deficient Pseudomonas aeruginosa PAO238 by broth dilution method; type: functional
# Acinetobacter junii = assay: Antimicrobial activity against Acinetobacter junii 15218 assessed as number of passages required for MIC to rise above 4 times original MIC; type: functional
# Pseudomonas aeruginosa [32] = assay: Antimicrobial activity against Pseudomonas aeruginosa 527 assessed as number of passages required for MIC to rise above 4 times original MIC; type: functional
# Acinetobacter baumannii [33] = assay: Antimicrobial activity against Acinetobacter baumannii HPA74510 assessed as number of passages required for MIC to rise above 4 times original MIC; type: functional
# Pseudomonas aeruginosa [34] = assay: Antimicrobial activity against mexAB-oprM protein and mexCD-oprJ deficient Pseudomonas aeruginosa PAO253 overexpressing MexEF-OprN gene by broth dilution method; type: functional
# Klebsiella pneumoniae [35] = assay: Antimicrobial activity against Klebsiella pneumoniae 1338665 assessed as number of passages required for MIC to rise above 4 times original MIC; type: functional
# Pseudomonas aeruginosa [36] = assay: Antimicrobial activity against mexAB-oprM, mexCD-oprJ, mexEF-oprN, mexJK, mexXY, opmH and pscC gene deficient Pseudomonas aeruginosa PAO750 by broth dilution method; type: functional
# [37] = system: Stenotrophomonas maltophilia; assay: Antimicrobial activity against Stenotrophomonas maltophilia 1AC736 assessed as number of passages required for MIC to rise above 4 times original MIC; type: functional
# Pseudomonas aeruginosa [38] = assay: Antimicrobial activity against mexAB-oprM protein and mexZ deficient Pseudomonas aeruginosa PAO267 by broth dilution method; type: functional
# Pseudomonas aeruginosa [39] = assay: Antimicrobial activity against Pseudomonas aeruginosa BA assessed as number of passages required for MIC to rise above 4 times original MIC; type: functional
# Klebsiella pneumoniae [40] = assay: Antimicrobial activity against Klebsiella pneumoniae by broth dilution method; type: functional
# Pseudomonas aeruginosa [41] = assay: Antimicrobial activity against Pseudomonas aeruginosa B4 by broth dilution method; type: functional
# Enterobacter cloacae = assay: Antimicrobial activity against Enterobacter cloacae by broth dilution method; type: functional
# Pseudomonas aeruginosa [42] = assay: Antimicrobial activity against Pseudomonas aeruginosa BA(C1-106) selected after 25 ug/ml of compound exposure by broth dilution method; type: functional
# Proteus penneri = assay: Antimicrobial activity against Proteus penneri by broth dilution method; type: functional
# Proteus vulgaris = assay: Antimicrobial activity against Proteus vulgaris by broth dilution method; type: functional
# [43] = system: Stenotrophomonas maltophilia; assay: Antimicrobial activity against Stenotrophomonas maltophilia by broth dilution method; type: functional
# Serratia marcescens [44] = assay: Antimicrobial activity against Serratia marcescens by broth dilution method; type: functional
# Pseudomonas aeruginosa [45] = assay: microbe, parasite or virus in culture; settings: PAO1
# Pseudomonas aeruginosa [46] = assay: Antimicrobial activity against Pseudomonas aeruginosa BA(C2-107) selected after 25 ug/ml of compound exposure by broth dilution method; type: functional
# Pseudomonas aeruginosa [47] = assay: Antimicrobial activity against Pseudomonas aeruginosa by broth dilution method; type: functional
# Providencia stuartii = assay: Antimicrobial activity against Providencia stuartii by broth dilution method; type: functional
# Providencia rettgeri [48] = assay: Antimicrobial activity against Providencia rettgeri by broth dilution method; type: functional
# Pseudomonas aeruginosa [49] = assay: Antimicrobial activity against oprD protein deficient Pseudomonas aeruginosa C2 by broth dilution method; type: functional
# Pseudomonas aeruginosa [50] = assay: Antimicrobial activity against Pseudomonas aeruginosa BA by broth dilution method; type: functional; settings: Pseudomonas aeruginosa, BA; read-out: MIC
# Burkholderia sp. = assay: Antimicrobial activity against Burkholderia sp. by broth dilution method; type: functional
# Proteus mirabilis = assay: Antimicrobial activity against Proteus mirabilis by broth dilution method; type: functional
compound,measurement,setting,value
C[C@H]1[C@H](NC(=O)/C(=N\OC(C)(C)C(=O)O)c2csc(N)n2)C(=O)N1S(=O)(=O)O [AZTREONAM],MIC,Escherichia coli [1],16 µg/mL
same,MIC50,Escherichia coli [2],> 32 µg/mL
same,MIC90,Escherichia coli [2],> 32 µg/mL
same,MIC,Klebsiella pneumoniae [3],> 32 µg/mL
same,pIC50,[4],< 4.30
same,MIC,Providencia rettgeri [5],2 µg/mL
same,MIC,Escherichia coli [6],> 32 µg/mL
same,pIC50,[7],7.64
same,MIC,Klebsiella oxytoca [8],> 32 µg/mL
same,MIC,Pseudomonas aeruginosa [9],16 µg/mL
same,MIC,Acinetobacter baumannii [10],32 µg/mL
same,MIC,Acinetobacter baumannii [11],32 µg/mL
same,MIC,Serratia marcescens [12],16 µg/mL
same,pIC50,[13],2.96
same,pIC50,AmpC,7.22
same,MIC,Pseudomonas aeruginosa [14],> 32 µg/mL
same,pIC50,[15],< 4.30
same,MIC,Citrobacter freundii,> 32 µg/mL
same,MIC50,Citrobacter freundii,> 32 µg/mL
same,MIC90,Citrobacter freundii,> 32 µg/mL
same,MIC,Acinetobacter baumannii [16],32 µg/mL
same,MIC,Acinetobacter baumannii [17],16 µg/mL
same,MIC,Klebsiella pneumoniae [18],> 32 µg/mL
same,MIC,Klebsiella pneumoniae [19],> 32 µg/mL
same,MIC50,Klebsiella oxytoca [20],16 µg/mL
same,MIC90,Klebsiella oxytoca [20],> 32 µg/mL
same,Activity,Escherichia coli [21],Active
same,MIC,Klebsiella pneumoniae [22],> 32 µg/mL
same,MIC,Escherichia coli [23],32 µg/mL
same,MIC50,Klebsiella aerogenes,4 µg/mL
same,MIC90,Klebsiella aerogenes,> 32 µg/mL
same,pIC50,[24],< 2.60
same,MIC,Escherichia coli [25],> 32 µg/mL
same,MIC,Escherichia coli [26],32 µg/mL
same,MIC,Escherichia coli [27],> 32 µg/mL
same,pIC50,[28],< 4.30
same,MIC50,Acinetobacter sp.,> 32 µg/mL
same,MIC90,Acinetobacter sp.,> 32 µg/mL
same,MIC,[29],32 µg/mL
same,Activity,Escherichia coli [30],Active
O=C(O)c1cn(C2CC2)c2cc(N3CCNCC3)c(F)cc2c1=O [CIPROFLOXACIN],MIC,Pseudomonas aeruginosa [31],≤ 0.06 µg/mL
same,Activity,Acinetobacter junii,12 passages
same,Activity,Pseudomonas aeruginosa [32],3 passages
same,Activity,Acinetobacter baumannii [33],inactive
same,MIC,Pseudomonas aeruginosa [34],1 µg/mL
same,Activity,Klebsiella pneumoniae [35],inactive
same,MIC,Pseudomonas aeruginosa [36],≤ 0.06 µg/mL
same,Activity,[37],inactive
same,MIC,Pseudomonas aeruginosa [38],≤ 0.06 µg/mL
same,Activity,Pseudomonas aeruginosa [39],2 passages
CC(C)(O/N=C(\C(=O)N[C@@H]1C(=O)N2C(C(=O)[O-])=C(C[n+]3ccccc3)CS[C@H]12)c1csc(N)n1)C(=O)O [CEFTAZIDIME],MIC50,Klebsiella pneumoniae [40],> 32 µg/mL
same,MIC90,Klebsiella pneumoniae [40],> 32 µg/mL
same,MIC,Pseudomonas aeruginosa [41],4 µg/mL
same,MIC50,Escherichia coli [2],32 µg/mL
same,MIC90,Escherichia coli [2],> 32 µg/mL
same,MIC50,Enterobacter cloacae,16 µg/mL
same,MIC90,Enterobacter cloacae,> 32 µg/mL
same,MIC,Pseudomonas aeruginosa [42],16 µg/mL
same,MIC,Proteus penneri,≤ 0.06 µg/mL
same,MIC50,Proteus penneri,≤ 0.06 µg/mL
same,MIC90,Proteus penneri,0.25 µg/mL
same,MIC,Proteus vulgaris,≤ 0.06 µg/mL
same,MIC50,Proteus vulgaris,≤ 0.06 µg/mL
same,MIC90,Proteus vulgaris,0.25 µg/mL
same,MIC,Pseudomonas aeruginosa [31],0.5 µg/mL
same,MIC50,[43],2 µg/mL
same,MIC90,[43],16 µg/mL
same,MIC50,Serratia marcescens [44],1 µg/mL
same,MIC90,Serratia marcescens [44],2 µg/mL
same,MIC,Citrobacter freundii,> 32 µg/mL
same,MIC50,Citrobacter freundii,> 32 µg/mL
same,MIC90,Citrobacter freundii,> 32 µg/mL
same,MIC,Pseudomonas aeruginosa [34],0.25 µg/mL
same,MIC,Pseudomonas aeruginosa [45],1 µg/mL
same,MIC,Pseudomonas aeruginosa [36],0.5 µg/mL
same,MIC,Pseudomonas aeruginosa [46],2 µg/mL
same,MIC50,Pseudomonas aeruginosa [47],16 µg/mL
same,MIC90,Pseudomonas aeruginosa [47],> 32 µg/mL
same,MIC50,Providencia stuartii,1 µg/mL
same,MIC90,Providencia stuartii,> 32 µg/mL
same,MIC,Pseudomonas aeruginosa [38],0.5 µg/mL
same,MIC50,Providencia rettgeri [48],1 µg/mL
same,MIC90,Providencia rettgeri [48],> 32 µg/mL
same,MIC50,Klebsiella oxytoca [20],1 µg/mL
same,MIC90,Klebsiella oxytoca [20],8 µg/mL
same,MIC50,Klebsiella aerogenes,> 32 µg/mL
same,MIC90,Klebsiella aerogenes,> 32 µg/mL
same,MIC,Pseudomonas aeruginosa [49],2 µg/mL
same,MIC,Pseudomonas aeruginosa [50],2 µg/mL
same,MIC50,Burkholderia sp.,2 µg/mL
same,MIC90,Burkholderia sp.,8 µg/mL
same,MIC,Proteus mirabilis,≤ 0.06 µg/mL
same,MIC50,Proteus mirabilis,≤ 0.06 µg/mL
same,MIC90,Proteus mirabilis,0.25 µg/mL
same,MIC50,Acinetobacter sp.,32 µg/mL
same,MIC90,Acinetobacter sp.,> 32 µg/mL
